Laboratory results reported in patent US20080234262A1 (Wyeth, priority 2007, published 2008).

Biological target: PI3K (Homo sapiens, UniProt P42336)
Experiment: Fluorescence polarization assay for PI3K;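 note: PI3K kinase reaction on PIP2 with ATP, 30-60 min, product sensed by GST-GRP with red probe in fluorescence polarization (mP), controls without enzyme and at zero time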
Type: biochemical
Details: PI3Kα; read-out: PI3Kα IC50

Sequence of PI3K (P42336 whole entry): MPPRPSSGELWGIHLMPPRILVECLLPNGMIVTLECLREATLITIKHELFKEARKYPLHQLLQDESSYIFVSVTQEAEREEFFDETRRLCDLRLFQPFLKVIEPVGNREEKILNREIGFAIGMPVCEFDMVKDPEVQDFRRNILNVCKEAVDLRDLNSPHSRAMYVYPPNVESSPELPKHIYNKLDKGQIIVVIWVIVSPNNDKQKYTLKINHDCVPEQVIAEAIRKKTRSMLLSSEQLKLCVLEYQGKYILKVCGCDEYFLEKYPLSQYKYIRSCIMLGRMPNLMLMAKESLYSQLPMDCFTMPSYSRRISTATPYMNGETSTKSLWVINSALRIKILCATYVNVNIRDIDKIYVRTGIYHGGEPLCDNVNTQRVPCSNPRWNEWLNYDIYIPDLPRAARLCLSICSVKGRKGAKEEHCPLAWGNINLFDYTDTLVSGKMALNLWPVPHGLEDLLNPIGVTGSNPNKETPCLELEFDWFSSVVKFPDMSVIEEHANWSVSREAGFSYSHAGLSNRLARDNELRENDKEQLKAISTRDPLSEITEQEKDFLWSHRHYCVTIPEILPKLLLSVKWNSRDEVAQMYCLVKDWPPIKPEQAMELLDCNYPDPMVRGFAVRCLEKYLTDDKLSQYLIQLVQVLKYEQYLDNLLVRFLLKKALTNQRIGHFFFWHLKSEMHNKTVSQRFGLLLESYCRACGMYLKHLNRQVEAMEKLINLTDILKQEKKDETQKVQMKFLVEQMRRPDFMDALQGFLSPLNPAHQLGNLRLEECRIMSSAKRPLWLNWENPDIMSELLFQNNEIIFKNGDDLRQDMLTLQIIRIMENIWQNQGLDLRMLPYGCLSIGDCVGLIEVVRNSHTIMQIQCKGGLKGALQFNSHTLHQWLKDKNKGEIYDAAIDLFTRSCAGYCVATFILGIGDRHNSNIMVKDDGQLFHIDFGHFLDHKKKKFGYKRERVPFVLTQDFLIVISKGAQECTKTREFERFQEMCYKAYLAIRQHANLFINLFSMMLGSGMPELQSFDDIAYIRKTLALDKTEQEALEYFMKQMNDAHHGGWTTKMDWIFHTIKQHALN
Sequence of PI3K (P27986 whole entry partner): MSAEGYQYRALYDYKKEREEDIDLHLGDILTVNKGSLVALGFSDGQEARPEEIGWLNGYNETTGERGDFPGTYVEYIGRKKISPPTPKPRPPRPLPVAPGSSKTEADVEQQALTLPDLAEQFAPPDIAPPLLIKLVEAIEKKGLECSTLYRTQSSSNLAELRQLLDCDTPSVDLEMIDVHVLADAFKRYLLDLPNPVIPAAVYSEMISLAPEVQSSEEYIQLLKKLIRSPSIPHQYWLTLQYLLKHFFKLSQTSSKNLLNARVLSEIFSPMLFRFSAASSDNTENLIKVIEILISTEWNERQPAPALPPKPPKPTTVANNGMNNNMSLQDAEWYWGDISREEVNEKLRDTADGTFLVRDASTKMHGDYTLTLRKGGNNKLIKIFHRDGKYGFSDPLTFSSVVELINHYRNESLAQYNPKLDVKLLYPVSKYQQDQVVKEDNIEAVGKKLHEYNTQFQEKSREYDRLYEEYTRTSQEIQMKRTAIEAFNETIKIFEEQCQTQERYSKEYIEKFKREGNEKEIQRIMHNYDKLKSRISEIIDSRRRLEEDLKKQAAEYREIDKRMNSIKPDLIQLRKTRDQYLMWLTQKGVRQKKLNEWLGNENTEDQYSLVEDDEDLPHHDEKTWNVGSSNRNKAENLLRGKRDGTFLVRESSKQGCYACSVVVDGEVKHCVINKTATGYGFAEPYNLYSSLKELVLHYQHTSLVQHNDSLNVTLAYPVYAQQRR

Structure (SMILES)	IC50 [nM]
CCNC(=NC#N)Nc1ccc(-c2nc(N3CCOCC3)c3cnn(C4CCN(Cc5cccnc5)CC4)c3n2)cc1 [Compound 652, 2-cyano-1-ethyl-3-(4-{4-morpholin-4-yl-1-[1-(pyridin-3-ylmethyl)piperidin-4-yl]-1H-pyrazolo[3,4-d]pyrimidin-6-yl}phenyl)guanidine]	916
CNC(=O)Nc1ccc(-c2nc(N3CCOCC3)c3cnn(C4CCN(C(=O)c5cccnc5)CC4)c3n2)c(F)c1 [Example 461, 1-(3-fluoro-4-{4-morpholin-4-yl-1-[1-(pyridin-3-ylcarbonyl)piperidin-4-yl]-1H-pyrazolo[3,4-d]pyrimidin-6-yl}phenyl)-3-methylurea]	887
O=C(Nc1ccc(-c2nc(N3CCOCC3)c3cnn(C4CCN(Cc5ccccc5)CC4)c3n2)cc1)C(F)(F)F [Compound 299, N-{4-[1-(1-benzylpiperidin-4-yl)-4-morpholin-4-yl-1H-pyrazolo[3,4-d]pyrimidin-6-yl]phenyl}-2,2,2-trifluoroacetamide]	1900
CC(=O)Nc1ccc(-c2nc(N3CCOCC3)c3cnn(C4CCCCO4)c3n2)cc1 (centres unmarked) [Compound 925, N-{4-[4-morpholin-4-yl-1-(tetrahydro-2H-pyran-2-yl)-1H-pyrazolo[3,4-d]pyrimidin-6-yl]phenyl}acetamide]	1650
O=C(NCCF)Nc1cc(F)c(-c2nc(N3CCOCC3)c3cnn(C4CCN(C(=O)c5cccnc5)CC4)c3n2)cc1F [Compound 711, 1-(2,5-difluoro-4-{4-morpholin-4-yl-1-[1-(pyridin-3-ylcarbonyl)piperidin-4-yl]-1H-pyrazolo[3,4-d]pyrimidin-6-yl}phenyl)-3-(2-fluoroethyl)urea]	2980
NC(=O)Cc1ccc(-c2nc(N3CCOCC3)c3cnn(C4CCN(Cc5ccccc5)CC4)c3n2)cc1 [Compound 370, 2-{4-[1-(1-benzylpiperidin-4-yl)-4-morpholin-4-yl-1H-pyrazolo[3,4-d]pyrimidin-6-yl]phenyl}acetamide]	3130
Oc1cccc(-c2nc(N3CCSCC3)c3cnn(-c4ccccc4)c3n2)c1 [Compound 963, 3-(1-phenyl-4-thiomorpholin-4-yl-1H-pyrazolo[3,4-d]pyrimidin-6-yl)phenol]	1620
CCOC(=O)Nc1ccc(-c2nc(N3CCOCC3)c3cnn(C4CCN(C(=O)c5ccccc5)CC4)c3n2)cc1 [Compound 628, ethyl {4-[1-(1-benzoylpiperidin-4-yl)-4-morpholin-4-yl-1H-pyrazolo[3,4-d]pyrimidin-6-yl]phenyl}carbamate]	1580
c1ccc(CN2CCC(n3ncc4c(N5CCOCC5)nc(-c5ccc6c(c5)OCO6)nc43)CC2)cc1 [Example 33]	1160
Nc1ccc(-c2nc(N3CCOCC3)c3cnn(C4CCCCO4)c3n2)cc1 (centres unmarked) [Compound 934, 4-[4-morpholin-4-yl-1-(tetrahydro-2H-pyran-2-yl)-1H-pyrazolo[3,4-d]pyrimidin-6-yl]aniline]	4920
C=CC(=O)N1CCC(n2ncc3c(N4CCOCC4)nc(-c4ccc(NC(=O)OC)cc4)nc32)CC1 [Compound 702, methyl {4-[1-(1-acryloylpiperidin-4-yl)-4-morpholin-4-yl-1H-pyrazolo[3,4-d]pyrimidin-6-yl]phenyl}carbamate]	1980
O=C(Nc1cc(F)c(-c2nc(N3CCOCC3)c3cnn(C4CCN(C(=O)c5cccnc5)CC4)c3n2)cc1F)NC1CC1 [Compound 712, 1-cyclopropyl-3-(2,5-difluoro-4-{4-morpholin-4-yl-1-[1-(pyridin-3-ylcarbonyl)piperidin-4-yl]-1H-pyrazolo[3,4-d]pyrimidin-6-yl}phenyl)urea]	3560
c1cc2cc(-c3nc(N4CCOCC4)c4cnn(C5CCNCC5)c4n3)ccc2[nH]1 [Example 46]	1310
CC(=O)Nc1ccc(-c2nc(N3CCOCC3)c3cnn(C4CCN(C(=O)c5cccnc5)CC4)c3n2)cc1 [Example 221, N-(4-{4-morpholin-4-yl-1-[1-(pyridin-3-ylcarbonyl)piperidin-4-yl]-1H-pyrazolo[3,4-d]pyrimidin-6-yl}phenyl)acetamide]	878
O=C(NCCF)Nc1ccc(-c2nc(N3CCOCC3)c3cnn(C4CCN(C(=O)c5cccnc5)CC4)c3n2)c(F)c1 [Compound 707, 1-(2-fluoroethyl)-3-(3-fluoro-4-{4-morpholin-4-yl-1-[1-(pyridin-3-ylcarbonyl)piperidin-4-yl]-1H-pyrazolo[3,4-d]pyrimidin-6-yl}phenyl)urea]	1730

Second part, the compound after the results:

IC50 [nM]	Structure (SMILES)
533	O=C(NCc1ccccc1)Nc1ccc(-c2nc(N3CCOCC3)c3cnn(C4CCN(Cc5ccccc5)CC4)c3n2)cc1 [Compound 258, 1-benzyl-3-{4-[1-(1-benzylpiperidin-4-yl)-4-morpholin-4-yl-1H-pyrazolo[3,4-d]pyrimidin-6-yl]phenyl}urea]
514	COC(=O)Nc1ccc(-c2nc(N3CCOCC3)c3cnn(C4CCN(C(=O)c5cccnc5)CC4)c3n2)cc1 [Example 223, methyl (4-{4-morpholin-4-yl-1-[1-(pyridin-3-ylcarbonyl)piperidin-4-yl]-1H-pyrazolo[3,4-d]pyrimidin-6-yl}phenyl)carbamate]
357	O=C(Nc1ccc(-c2nc(N3CCOCC3)c3cnn(C4CCN(C(=O)c5cccnc5)CC4)c3n2)cc1)NC1CC1 [Compound 659, 1-cyclopropyl-3-(4-{4-morpholin-4-yl-1-[1-(pyridin-3-ylcarbonyl)piperidin-4-yl]-1H-pyrazolo[3,4-d]pyrimidin-6-yl}phenyl)urea]
138	CCNC(=O)Nc1ccc(-c2nc(N3CCOCC3)c3cnn(C4CCN(Cc5cccnc5)CC4)c3n2)cn1 [Compound 479, 1-ethyl-3-(5-{4-morpholin-4-yl-1-[1-(pyridin-3-ylmethyl)piperidin-4-yl]-1H-pyrazolo[3,4-d]pyrimidin-6-yl}pyridin-2-yl)urea]
105	CNC(=O)Nc1ccc(-c2nc(N3CCOCC3)c3cn[nH]c3n2)cc1 [Example 236, 1-methyl-3-[4-(4-morpholin-4-yl-1H-pyrazolo[3,4-d]pyrimidin-6-yl)phenyl]urea]
42	CNC(=O)Nc1ccc(-c2nc(N3CCOCC3)c3cnn(C4CCN(Cc5cccc(Cl)c5)CC4)c3n2)cc1 [Compound 640, 1-(4-{1-[1-(3-chlorobenzyl)piperidin-4-yl]-4-morpholin-4-yl-1H-pyrazolo[3,4-d]pyrimidin-6-yl}phenyl)-3-methylurea]
51	CNC(=O)Nc1ccc(-c2nc(N3CCOCC3)c3cnn(-c4ccccc4)c3n2)cc1 [Example 297, 1-methyl-3-[4-(4-morpholin-4-yl-1-phenyl-1H-pyrazolo[3,4-d]pyrimidin-6-yl)phenyl]urea]
363	N#CNC(=O)Nc1ccc(-c2nc(N3CCOCC3)c3cnn(C4CCN(Cc5cccnc5)CC4)c3n2)cc1 [Compound 653, N′-cyano-N-(4-{4-morpholin-4-yl-1-[1-(pyridin-3-ylmethyl)piperidin-4-yl]-1H-pyrazolo[3,4-d]pyrimidin-6-yl}phenyl)carbamimidic acid]
160	CNC(=O)Nc1ccc(-c2nc(N3CCOCC3)c3cnn(C4CCN(C(=O)c5ccncc5)CC4)c3n2)cc1 [Compound 661, 1-{4-[1-(1-isonicotinoylpiperidin-4-yl)-4-morpholin-4-yl-1H-pyrazolo[3,4-d]pyrimidin-6-yl]phenyl}-3-methylurea]
70	Oc1cccc(-c2nc(N3CCOCC3)c3c(F)nn(-c4ccccc4)c3n2)c1 [Compound 964, 3-(3-fluoro-4-morpholin-4-yl-1-phenyl-1H-pyrazolo[3,4-d]pyrimidin-6-yl)phenol]
466	c1ccc(CN2CCC(n3ncc4c(N5CCOCC5)nc(-c5ccc6ncccc6c5)nc43)CC2)cc1 [Compound 937, 6-[1-(1-benzylpiperidin-4-yl)-4-morpholin-4-yl-1H-pyrazolo[3,4-d]pyrimidin-6-yl]quinoline]
287	CNC(=O)Nc1ccc(-c2nc(N3CCOCC3)c3cnn(C4CCN(C(=O)COC)CC4)c3n2)cc1 [Compound 718, 1-(4-{1-[1-(methoxyacetyl)piperidin-4-yl]-4-morpholin-4-yl-1H-pyrazolo[3,4-d]pyrimidin-6-yl}phenyl)-3-methylurea]
619	COC(=O)Nc1ccc(-c2nc(N3CCOCC3)c3cnn(C4CCN(Cc5ccc(Cl)nc5)CC4)c3n2)cc1 [Compound 698, methyl [4-(1-{1-[(6-chloropyridin-3-yl)methyl]piperidin-4-yl}-4-morpholin-4-yl-1H-pyrazolo[3,4-d]pyrimidin-6-yl)phenyl]carbamate]
359	O=C(NCc1ccco1)Nc1ccc(-c2nc(N3CCOCC3)c3cnn(C4CCN(Cc5cccnc5)CC4)c3n2)cc1 [Compound 376, 1-(2-furylmethyl)-3-(4-{4-morpholin-4-yl-1-[1-(pyridin-3-ylmethyl)piperidin-4-yl]-1H-pyrazolo[3,4-d]pyrimidin-6-yl}phenyl)urea]
466	c1ccc(CN2CCC(n3ncc4c(N5CCOCC5)nc(-c5ccc6ncccc6c5)nc43)CC2)cc1 [Compound 369, 6-[1-(1-benzylpiperidin-4-yl)-4-morpholin-4-yl-1H-pyrazolo[3,4-d]pyrimidin-6-yl]quinoline]

Test system: breast line MDA468
Experiment: In vitro cell culture growth assay (MTS), MDA468
Type: cell-based, human
Details: Homo sapiens, 72 h, MDA468 cells, three days after drug treatment
Description: Human tumor cell lines used include prostate lines LNCap and PC3MM2, breast lines MDA468, MCF7, renal line HTB44 (A498), colon line HCT116, and ovarian line OVCAR3. Cells were plated in 96-well culture plates. One day following plating, the inhibitors were added to cells. Three days after drug treatment, viable cell densities were determined by metabolic conversion (by viable cells) of the dye MTS, a well established cell proliferation assay. The assays were performed using an assay kit purchased from Promega Corp. (Madison, Wis.) following the protocol supplied with the kit. The MTS assay results were read in a 96-well plate reader by measuring absorbance at 490 nm. The effect of each treatment was calculated as percent of control growth relative to the vehicle-treated cells grown in the same culture plate.

Structure (SMILES)	IC50 [nM]
COC(=O)N1CCC(n2ncc3c(N4CCOCC4)nc(-c4ccc(NC(=O)Nc5ccc(CCN6CCCC6)cc5)cc4)nc32)CC1 [Compound 914, methyl 4-{4-morpholin-4-yl-6-[4-({[4-(2-pyrrolidin-1-ylethyl)phenyl]carbamoyl}amino)phenyl]-1H-pyrazolo[3,4-d]pyrimidin-1-yl}piperidine-1-carboxylate]	20
O=C(NCCO)Nc1ccc(-c2nc(N3CCOCC3)c3cnn(C4CCN(Cc5ccccc5)CC4)c3n2)cc1 [Compound 510, 1-{4-[1-(1-benzylpiperidin-4-yl)-4-morpholin-4-yl-1H-pyrazolo[3,4-d]pyrimidin-6-yl]phenyl}-3-(2-hydroxyethyl)urea]	50
